Measurements as given in publication PMC5773217, “Xylose donor transport is critical for fungal virulence” (PLoS Pathogens, 2018).

Tests used:
[1] = biological target: T1, Gmt1 (Cryptococcus neoformans, UniProt J9VRU7); experiment: uptake into reconstituted proteoliposomes, LC-MS/MS; format: biochemical; details: 37°C
T1 construct: gene CNAG_05817; full coding region, C-terminal His/V5 tag kept, pYES-DEST52 in S. cerevisiae INVSc1, membrane protein reconstituted into proteoliposomes

[2] = biological target: T2, Gmt2 (Cryptococcus neoformans, UniProt J9VY61); experiment: as above; format: biochemical; details: 37°C
T2 construct: gene CNAG_03426; full coding region, C-terminal His/V5 tag kept, pYES-DEST52 in S. cerevisiae INVSc1, membrane protein reconstituted into proteoliposomes

[3] = system: O=c1ccn([C@@H]2O[C@H](COP(=O)(O)OP(=O)(O)O[C@H]3OC[C@@H](O)[C@H](O)[C@H]3O)[C@@H](O)[C@H]2O)c(=O)[nH]1; experiment: cells, lysate or membranes; details: antiport, preloaded with 10 mM UMP; 2 min; UDP-Xyl 0-100 μM
[4] = antiport, preloaded with 30 mM GMP, 16-substrate mixture, 50 μM each, 10 min
[5] = antiport counter-substrate, 30 mM GMP preloaded, GDP-Man outside

T2 sequence (J9VY61 entry or part of it): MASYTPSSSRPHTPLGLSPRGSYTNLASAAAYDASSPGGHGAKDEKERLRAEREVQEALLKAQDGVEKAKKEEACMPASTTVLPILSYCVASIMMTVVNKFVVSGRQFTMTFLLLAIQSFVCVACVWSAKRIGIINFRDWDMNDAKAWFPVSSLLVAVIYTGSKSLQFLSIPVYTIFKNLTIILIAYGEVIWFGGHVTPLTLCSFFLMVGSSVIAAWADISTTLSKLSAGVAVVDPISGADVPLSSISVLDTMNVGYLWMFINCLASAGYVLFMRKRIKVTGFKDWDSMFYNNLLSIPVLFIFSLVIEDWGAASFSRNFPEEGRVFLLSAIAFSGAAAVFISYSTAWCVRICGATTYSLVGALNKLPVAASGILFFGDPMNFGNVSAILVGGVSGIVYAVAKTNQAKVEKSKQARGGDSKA
T1 sequence (J9VRU7 entry or part of it): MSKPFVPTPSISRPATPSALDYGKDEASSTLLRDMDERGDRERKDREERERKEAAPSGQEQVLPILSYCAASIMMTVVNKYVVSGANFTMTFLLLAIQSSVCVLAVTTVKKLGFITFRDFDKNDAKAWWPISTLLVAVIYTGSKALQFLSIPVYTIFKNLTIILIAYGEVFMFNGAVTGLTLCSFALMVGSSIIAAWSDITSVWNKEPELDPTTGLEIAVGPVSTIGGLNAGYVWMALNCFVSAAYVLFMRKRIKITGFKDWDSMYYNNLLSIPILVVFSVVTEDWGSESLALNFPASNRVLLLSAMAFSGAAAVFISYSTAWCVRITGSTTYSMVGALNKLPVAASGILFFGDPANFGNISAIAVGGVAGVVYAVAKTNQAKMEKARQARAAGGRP

| Molecule | Km [3] | kcat [3] | other results |
| --- | --- | --- | --- |
| Nc1nc2c(ncn2[C@@H]2O[C@H](COP(=O)(O)OP(=O)(O)O[C@H]3O[C@H](CO)[C@@H](O)[C@H](O)[C@@H]3O)[C@@H](O)[C@H]2O)c(=O)[nH]1 [GDP-Man] | – | – | uptake into reconstituted proteoliposomes, LC-MS/MS [1, 4]: Both proteins transported GDP-Man and smaller amounts of other GDP-sugars in exchange for GMP; uptake into reconstituted proteoliposomes, LC-MS/MS [2, 4]: Both proteins transported GDP-Man and smaller amounts of other GDP-sugars in exchange for GMP |
| Nc1nc2c(ncn2[C@@H]2O[C@H](COP(=O)(O)O)[C@@H](O)[C@H]2O)c(=O)[nH]1 [GMP] | – | – | uptake into reconstituted proteoliposomes, LC-MS/MS [1, 5]: Both proteins transported GDP-Man and smaller amounts of other GDP-sugars in exchange for GMP; uptake into reconstituted proteoliposomes, LC-MS/MS [2, 5]: Both proteins transported GDP-Man and smaller amounts of other GDP-sugars in exchange for GMP |
| Uxt1 (Cryptococcus neoformans H99) | 1.0 ± 0.2 µM | 0.9 s⁻¹ | – |
| Uxt2 (Cryptococcus neoformans H99) | 2.2 ± 0.5 µM | 0.4 s⁻¹ | – |
